Source: ChEMBL document CHEMBL3616371, “Synthesis of BF₃ catalyzed Mannich derivatives with excellent ee from phenylpropanolamine, study of their antimicrobial activity and molecular docking” (2015)
In brackets after ≈: the same amount, converted by molar mass.

Columns and labels:
[1] = tested on: Staphylococcus aureus; assay: Antibacterial activity against Staphylococcus aureus assessed as growth inhibition at 1 mg/well after 24 hrs by Well method; assay type: functional
[2] = tested on: Klebsiella pneumoniae; assay: Antibacterial activity against Klebsiella pneumoniae after 24 hrs by two fold serial dilution method; assay type: functional
[3] = tested on: Salmonella typhimurium; assay: Antibacterial activity against Salmonella typhimurium after 24 hrs by two fold serial dilution method; assay type: functional, Salmonella enterica subsp. enterica serovar Typhimurium; conditions: Salmonella enterica
[4] = tested on: Shigella flexneri; assay: Antibacterial activity against Shigella flexneri assessed as growth inhibition at 1 mg/well after 24 hrs by Well method; assay type: functional
[5] = tested on: Klebsiella aerogenes; assay: Antibacterial activity against Enterobacter aerogenes assessed as growth inhibition at 1 mg/well after 24 hrs by Well method; assay type: functional
[6] = tested on: Klebsiella pneumoniae; assay: Antibacterial activity against Klebsiella pneumoniae assessed as growth inhibition at 1 mg/well after 24 hrs by Well method; assay type: functional
[7] = tested on: Bacillus subtilis; assay: Antibacterial activity against Bacillus subtilis after 24 hrs by two fold serial dilution method; assay type: functional
[8] = tested on: Micrococcus luteus; assay: Antibacterial activity against Micrococcus luteus after 24 hrs by two fold serial dilution method; assay type: functional
[9] = tested on: Pseudomonas aeruginosa; assay: Antibacterial activity against Pseudomonas aeruginosa after 24 hrs by two fold serial dilution method; assay type: functional
[10] = tested on: Staphylococcus aureus; assay: Antibacterial activity against methicillin-resistant Staphylococcus aureus after 24 hrs by two fold serial dilution method; assay type: functional
[11] = tested on: Aspergillus flavus; assay: Antifungal activity against Aspergillus flavus assessed as growth inhibition at 1 mg/well after 48 hrs by Well method; assay type: functional
[12] = tested on: Staphylococcus epidermidis; assay: Antibacterial activity against Staphylococcus epidermidis after 24 hrs by two fold serial dilution method; assay type: functional
[13] = tested on: Klebsiella aerogenes; assay: Antibacterial activity against Enterobacter aerogenes after 24 hrs by two fold serial dilution method; assay type: functional
[14] = tested on: Micrococcus luteus; assay: Antibacterial activity against Micrococcus luteus assessed as growth inhibition at 1 mg/well after 24 hrs by Well method; assay type: functional
[15] = tested on: Staphylococcus aureus; assay: Antibacterial activity against Staphylococcus aureus after 24 hrs by two fold serial dilution method; assay type: functional
[16] = tested on: Staphylococcus epidermidis; assay: Antibacterial activity against Staphylococcus epidermidis assessed as growth inhibition at 1 mg/well after 24 hrs by Well method; assay type: functional
[17] = tested on: Salmonella typhimurium; assay: Antibacterial activity against Salmonella typhimurium assessed as growth inhibition at 1 mg/well after 24 hrs by Well method; assay type: functional, Salmonella enterica subsp. enterica serovar Typhimurium
[18] = tested on: Bacillus subtilis; assay: Antibacterial activity against Bacillus subtilis assessed as growth inhibition at 1 mg/well after 24 hrs by Well method; assay type: functional
[19] = tested on: Aspergillus flavus; assay: Antifungal activity against Aspergillus flavus after 48 to 72 hrs by two fold serial dilution method; assay type: functional
[20] = tested on: Proteus vulgaris; assay: Antibacterial activity against Proteus vulgaris assessed as growth inhibition at 1 mg/well after 24 hrs by Well method; assay type: functional
[21] = tested on: Shigella flexneri; assay: Antibacterial activity against Shigella flexneri after 24 hrs by two fold serial dilution method; assay type: functional
[22] = tested on: Proteus vulgaris; assay: Antibacterial activity against Proteus vulgaris after 24 hrs by two fold serial dilution method; assay type: functional
[23] = tested on: Staphylococcus aureus; assay: Antibacterial activity against methicillin-resistant Staphylococcus aureus assessed as growth inhibition at 1 mg/well after 24 hrs by Well method; assay type: functional
[24] = tested on: Pseudomonas aeruginosa; assay: Antibacterial activity against Pseudomonas aeruginosa assessed as growth inhibition at 1 mg/well after 24 hrs by Well method; assay type: functional
[25] = tested on: Salmonella enterica subsp. enterica serovar Paratyphi B; assay: Antibacterial activity against Salmonella paratyphi B assessed as growth inhibition at 1 mg/well after 24 hrs by Well method; assay type: functional
[26] = tested on: Malassezia pachydermatis; assay: Antifungal activity against Malassezia pachydermatis after 48 to 72 hrs by two fold serial dilution method; assay type: functional
[27] = tested on: Malassezia pachydermatis; assay: Antifungal activity against Malassezia pachydermatis assessed as growth inhibition at 1 mg/well after 48 hrs by Well method; assay type: functional
[28] = tested on: Candida albicans; assay: Antifungal activity against Candida albicans assessed as growth inhibition at 1 mg/well after 48 hrs by Well method; assay type: functional
[29] = tested on: Candida albicans; assay: Antifungal activity against Candida albicans after 48 to 72 hrs by two fold serial dilution method; assay type: functional

Compound	inhibition zone (IZ) [1] [mm]	MIC [3] [µg/mL]	inhibition zone (IZ) [4] [mm]	inhibition zone (IZ) [5] [mm]	MIC [7] [µg/mL]	MIC [8] [µg/mL]	MIC [9] [µg/mL]	MIC [10] [µg/mL]	MIC [12] [µg/mL]	MIC [13] [µg/mL]	inhibition zone (IZ) [14] [mm]	MIC [15] [µg/mL]	inhibition zone (IZ) [16] [mm]	inhibition zone (IZ) [17] [mm]	inhibition zone (IZ) [18] [mm]	inhibition zone (IZ) [20] [mm]	MIC [21] [µg/mL]	MIC [22] [µg/mL]	inhibition zone (IZ) [23] [mm]	inhibition zone (IZ) [24] [mm]	other results
Cc1ccc(C(=O)CCN[C@H](C)[C@@H](O)c2ccccc2)cc1.Cl	24	12.5	20	27	12.5	25	12.5	6.25	3.13	12.5	22	25	31	25	22	28	50	6.25	28	23	MIC [2]: 50 µg/mL; inhibition zone (IZ) [6]: 15 mm; inhibition zone (IZ) [11]: 20 mm; MIC [19]: 50 µg/mL
COc1ccc(C(=O)CCN[C@H](C)[C@@H](O)c2ccccc2)cc1.Cl	20	25	24	19	25	12.5	25	6.25	6.25	12.5	19	12.5	24	18	22	22	25	12.5	22	18	MIC [2]: > 50 µg/mL; inhibition zone (IZ) [6]: 16 mm; inhibition zone (IZ) [11]: 16 mm; MIC [19]: 50 µg/mL; inhibition zone (IZ) [25]: 14 mm; MIC [26]: > 50 µg/mL
C[C@@H](NCCC(=O)c1cccc(O)c1)[C@@H](O)c1ccccc1.Cl	20	50	21	21	25	3.13	25	25	25	25	34	50	24	20	20	22	25	25	22	20	MIC [2]: 50 µg/mL; inhibition zone (IZ) [27]: 14 mm; inhibition zone (IZ) [6]: 20 mm; MIC [26]: > 50 µg/mL
C[C@H](NCCC(=O)c1ccc(Cl)cc1Cl)[C@H](O)c1ccccc1.Cl	36	25	31	34	25	25	25	25	25	25	35	25	35	30	30	32	25	25	31	29	MIC [2]: > 50 µg/mL; inhibition zone (IZ) [28]: 22 mm; MIC [19]: 25 µg/mL
C[C@H](NCCC(=O)c1ccccc1)[C@H](O)c1ccccc1.Cl	27	12.5	20	28	25	6.25	25	12.5	3.13	6.25	30	12.5	34	26	18	25	50	12.5	27	20	MIC [2]: 25 µg/mL; inhibition zone (IZ) [27]: 12 mm; inhibition zone (IZ) [6]: 21 mm; MIC [29]: 50 µg/mL; inhibition zone (IZ) [28]: 16 mm; MIC [26]: > 50 µg/mL
C[C@@H](NCCC(=O)c1ccc(Cl)cc1)[C@@H](O)c1ccccc1.Cl	36	6.25	30	34	12.5	6.25	12.5	3.13	3.13	3.13	29	3.13	36	30	24	32	6.25	3.13	33	23	MIC [2]: 50 µg/mL; inhibition zone (IZ) [27]: 15 mm; inhibition zone (IZ) [6]: 18 mm; MIC [29]: 12.5 µg/mL; inhibition zone (IZ) [28]: 24 mm; MIC [26]: 50 µg/mL
C[C@@H](NCCC(=O)c1ccccc1)[C@@H](O)c1ccccc1.Cl	22	25	22	20	25	12.5	12.5	6.25	12.5	50	28	25	26	22	20	24	25	25	28	22	MIC [2]: 50 µg/mL; inhibition zone (IZ) [27]: 14 mm; inhibition zone (IZ) [6]: 19 mm; MIC [29]: 50 µg/mL; inhibition zone (IZ) [28]: 15 mm; MIC [26]: 50 µg/mL
C[C@H](NCCC(=O)c1cccc(O)c1)[C@H](O)c1ccccc1.Cl	24	25	22	22	12.5	3.13	12.5	25	6.25	25	35	25	28	22	23	24	25	25	23	22	MIC [2]: 25 µg/mL; inhibition zone (IZ) [6]: 24 mm
Cc1ccc(C(=O)CCN[C@@H](C)[C@H](O)c2ccccc2)cc1.Cl	22	3.13	22	24	6.25	3.13	3.13	3.13	3.13	3.13	22	3.13	24	23	18	24	3.13	3.13	23	20	inhibition zone (IZ) [6]: 13 mm; inhibition zone (IZ) [11]: 22 mm; MIC [19]: 50 µg/mL
C[C@@H](NCCC(=O)c1cccc([N+](=O)[O-])c1)[C@@H](O)c1ccccc1.Cl	14	50	19	17	25	50	50	50	50	50	18	50	18	18	18	20	50	50	16	17	inhibition zone (IZ) [27]: 21 mm; MIC [29]: 50 µg/mL; inhibition zone (IZ) [28]: 15 mm; MIC [26]: 25 µg/mL
CC(=O)N1CCN(c2ccc(OCC3COC(Cn4ccnc4)(c4ccc(Cl)cc4Cl)O3)cc2)CC1 (stereo not given) [KETOCONAZOLE]	–	–	–	–	–	–	–	–	–	–	–	–	–	–	–	–	–	–	–	–	inhibition zone (IZ) [27]: 26 mm; MIC [29]: 25 µg/mL (≈ 47 µM); inhibition zone (IZ) [28]: 28 mm; inhibition zone (IZ) [11]: 24 mm; MIC [19]: < 12.5 µg/mL; MIC [26]: 25 µg/mL (≈ 47 µM)
